How the values were obtained:
[1] = tested on: WSU-DLCL2 human diffuse large cell lymphoma; experiment: Inhibition of tumor growth in WSU-DLCL2 non-Hodgkin's-lymphoma model with PNT-100 and vincristine (Example 7); type: in vivo, mice
Source text: A non-Hodgkin's-lymphoma model (NHL) was used. The WSU-DLCL2 (Wayne State University diffuse large cell lymphoma) model is a very robust model of chemoresistant aggressive human diffuse large cell lymphoma. It was obtained from Dr. Ramzi Mohammad and Dr. Al-Katib and colleagues at the Karmanos Cancer Institute at Wayne State University. (See Al-Katib, A M, et al., Clin. Cancer Res. 4, 1305-1314 (1998); Mohammad, R, et al., Clin. Cancer Res. 8, 1277-1283 (2002); Mohammad, R M, et al., Mol. Cancer. Ther., 4, 13-21 (2005); Mohammad, R M, et al., Clin. Cancer Res. 6, 4950-4956, (2000).) The study was designed to administer five daily doses of 5 mg/kg PNT-100 (SEQ ID NO: 1251), and in certain cohorts, combination therapy with vincristine.

Daudi xenografts = experiment: Efficacy of liposomal PNT-100 and rituximab in Daudi xenografts (Example 11); type: in vivo, mice; conditions: doses and schedules of Table 5, FIGS. 7-9
Procedure: Daudi cells are a model of Burkett's lymphoma. Xenografts with Daudi cells were generated in mice as described in the previous examples. Liposomal PNT-100 was formulated as in example 9 and has similar properties and a concentration of 2.4 mg PNT-100 per ml. The mice were divided into 10 groups and treated as in Table 5.
Tumor volume was caliper measured. Studies were concluded when control animal xenografts reached 2000 mm^3. […] FIG. 8 is a Kaplan-Meyer plot, showing the percent of mice whose tumors have not yet reached 2000 mm^3 each day.

WSU-DLCL2 xenografts = experiment: Efficacy of liposomal PNT-100 and rituximab in WSU-DLCL2 xenografts (Example 10); type: in vivo, C.B-17 SCID mice; conditions: rituximab 20 mg/kg days 2 and 5; liposomal PNT-100 daily for five days; i.v.
Procedure: Xenografts with WSU-DLCL2 cells were generated in C.B-17 SCID mice between 4-6 weeks old as described in the previous examples. […] Human pharmaceutical grade rituximab (Biogen Idec-Genentech) was provided by Karmanos Cancer Institute. The mice were treated as in Table 4. [table] Animals were checked three times weekly for tumor growth by caliper measurements. An approximate tumor volume was calculated using the formula ½(a×b^2), where b is the smaller of two perpendicular diameters. Animals were sacrificed when individual animal tumor burden reached 2000 mm^3 or when the study was concluded 81 days post tumor trocar.

Substance | growth of tumors in mice ([1]; 5 mg/kg PNT-100, alone or with vincristine) | weight loss in the animals ([1]; after one dose, 5 mg/kg planned daily doses) | effect on tumor volume / time to 2000 mm^3 (Daudi xenografts) | complete regression of the tumor (shrinkage below measurable size for three consecutive time points), number of tumors (WSU-DLCL2 xenografts) | complete regression through the 81 day endpoint, number of tumors (WSU-DLCL2 xenografts)
PNT-100: PNT-100 oligonucleotide not methylated, bcl-2 oligonucleotide, SEQ ID NO:1251 (DNA CACGCACGCGCATCCCCGCCCGTG; sugars by position and backbone not given here; liposomal formulation) | decreases the growth tumors | noticeable weight loss | little effect | – | –
Rituximab: human pharmaceutical grade rituximab (Biogen Idec-Genentech), antibody directed against CD20 | – | – | little effect | seven out of eight | four out of eight

— patent US8822646B2, “Cancer therapies and pharmaceutical compositions used therein” (ProNAi Therapeutics, Inc., priority 2005, dated 2014)
